Experimental data as given in ChEMBL document CHEMBL1201862, “PubChem BioAssay data set” (2004).
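Results reflect a 48-hour exposure of cells in 96-well plates to compound at five concentrations. GI50 marks 50% less growth.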 The source made the active and inactive calls. Rule as the data show it: active = GI50 up to about 1.1 µM and inactive = higher.

Key:
Assay in all cases: NCI-60 cell line screen, 48 h
M14 = test system: M14
COLO 205 = test system: COLO 205
SF-539 = test system: SF-539
SK-MEL-2 = test system: SK-MEL-2
HCC 2998 = test system: HCC 2998
OVCAR-3 = test system: OVCAR-3
Malme-3M = test system: Malme-3M
UO-31 = test system: UO-31
UACC-62 = test system: UACC-62
MDA-MB-435 = test system: MDA-MB-435
EKVX = test system: EKVX
A498 = test system: A498
A549 = test system: A549
NCI/ADR-RES = test system: NCI/ADR-RES
DU-145 = test system: DU-145
SN12C = test system: SN12C
MCF7 = test system: MCF7
CAKI-1 = test system: CAKI-1
NCI-H460 = test system: NCI-H460
K562 = test system: K562
OVCAR-4 = test system: OVCAR-4
UACC-257 = test system: UACC-257
ACHN = test system: ACHN
T47D = test system: T47D
PC-3 = test system: PC-3
Hs-578T = test system: Hs-578T
MDA-N = test system: MDA-N
NCI-H226 = test system: NCI-H226
RPMI-8226 = test system: RPMI-8226
HT-29 = test system: HT-29
HOP-62 = test system: HOP-62
LOX IMVI = test system: LOX IMVI
HCT-116 = test system: HCT-116
SF-295 = test system: SF-295
BT-549 = test system: BT-549
IGROV-1 = test system: IGROV-1
OVCAR-5 = test system: OVCAR-5
SF-268 = test system: SF-268
TK-10 = test system: TK-10
MDA-MB-231 = test system: MDA-MB-231
HL-60 = test system: HL-60
SK-MEL-28 = test system: SK-MEL-28
CCRF-CEM = test system: CCRF-CEM
U-251 = test system: U-251
SK-OV-3 = test system: SK-OV-3
786-0 = test system: 786-0
SR = test system: SR
NCI-H522 = test system: NCI-H522
KM12 = test system: KM12
SW-620 = test system: SW-620
SK-MEL-5 = test system: SK-MEL-5
OVCAR-8 = test system: OVCAR-8
SNB-19 = test system: SNB-19
MOLT-4 = test system: MOLT-4
HOP-92 = test system: HOP-92
NCI-H23 = test system: NCI-H23
HCT-15 = test system: HCT-15
SNB-75 = test system: SNB-75

Measured: GI50

OCCCc1cc(O)c2c(c1)C(CO)C(c1ccc(O)c(O)c1)O2 (stereo not given)
> 100 µM: HCT-15
inactive: M14 76.6 µM | COLO 205 > 100 µM | SF-539 > 100 µM | SK-MEL-2 > 100 µM | HCC 2998 > 100 µM | OVCAR-3 > 100 µM | Malme-3M > 100 µM | UO-31 > 100 µM | UACC-62 > 100 µM | MDA-MB-435 > 100 µM | EKVX > 100 µM | A498 > 100 µM | A549 > 100 µM | NCI/ADR-RES > 100 µM | DU-145 > 100 µM | SN12C > 100 µM | MCF7 > 100 µM | CAKI-1 > 100 µM | NCI-H460 > 100 µM | K562 > 100 µM | OVCAR-4 > 10 µM | UACC-257 > 100 µM | ACHN > 100 µM | T47D 80.2 µM | PC-3 > 100 µM | Hs-578T > 100 µM | MDA-N > 100 µM | NCI-H226 > 100 µM | RPMI-8226 > 10 µM | HT-29 > 100 µM | HOP-62 > 100 µM | LOX IMVI > 100 µM | HCT-116 > 100 µM | SF-295 > 100 µM | BT-549 > 100 µM | IGROV-1 > 100 µM | OVCAR-5 > 100 µM | SF-268 > 100 µM | TK-10 > 100 µM | MDA-MB-231 > 100 µM | HL-60 > 100 µM | SK-MEL-28 > 100 µM | CCRF-CEM > 100 µM | U-251 > 100 µM | SK-OV-3 > 100 µM | 786-0 > 100 µM | SR > 100 µM | NCI-H522 48.8 µM | KM12 > 100 µM | SW-620 > 100 µM | SK-MEL-5 > 100 µM | OVCAR-8 > 100 µM | SNB-19 > 100 µM | MOLT-4 > 100 µM | HOP-92 > 100 µM | NCI-H23 > 100 µM

COc1ccc(C(c2ccccc2)N2C(=O)CCC2C(=O)O)cc1OC (stereo not given)
inactive: M14 > 100 µM | COLO 205 > 100 µM | SF-539 > 100 µM | SK-MEL-2 > 100 µM | HCC 2998 > 100 µM | OVCAR-3 > 100 µM | Malme-3M > 100 µM | UO-31 > 100 µM | UACC-62 > 100 µM | MDA-MB-435 > 100 µM | EKVX > 100 µM | A498 > 100 µM | A549 > 100 µM | NCI/ADR-RES > 100 µM | DU-145 > 100 µM | SN12C > 100 µM | MCF7 > 100 µM | CAKI-1 > 100 µM | NCI-H460 > 100 µM | K562 > 100 µM | OVCAR-4 > 100 µM | UACC-257 > 100 µM | ACHN > 100 µM | T47D > 100 µM | PC-3 > 100 µM | Hs-578T > 100 µM | MDA-N > 100 µM | NCI-H226 > 100 µM | RPMI-8226 > 100 µM | HT-29 > 100 µM | HOP-62 > 100 µM | LOX IMVI > 100 µM | HCT-116 > 100 µM | SF-295 > 100 µM | BT-549 > 100 µM | IGROV-1 > 100 µM | OVCAR-5 > 100 µM | SF-268 > 100 µM | TK-10 > 100 µM | MDA-MB-231 > 100 µM | HL-60 > 100 µM | SK-MEL-28 14 µM | CCRF-CEM > 100 µM | U-251 > 100 µM | SK-OV-3 > 100 µM | SNB-75 > 100 µM | 786-0 > 100 µM | SR > 100 µM | NCI-H522 > 100 µM | KM12 > 100 µM | SW-620 > 100 µM | SK-MEL-5 > 100 µM | OVCAR-8 > 100 µM | SNB-19 > 100 µM | MOLT-4 > 100 µM | HOP-92 > 100 µM | NCI-H23 > 100 µM
> 100 µM: HCT-15
